Results published in patent US20260250250A1, “3-(SULPHONYL OR SULFONIMIDOYL)PROP-2-EN-1-YL]-2-OXO-1,2-DIHYDROPYRIDINE-3-CARBOXAMIDE DERIVATIVES” (Flinder Therapeutics B.V., priority 2022, published 2026).

What was measured:
[1] = target: T1, human E3 ubiquitin-protein ligase RNF31 (HOIP) (Homo sapiens, UniProt Q96EP0); experiment: Cell-free HTRF-based HOIP inhibition assay; type: biochemical
T1 sequence (Q96EP0 695-1072 limits assumed): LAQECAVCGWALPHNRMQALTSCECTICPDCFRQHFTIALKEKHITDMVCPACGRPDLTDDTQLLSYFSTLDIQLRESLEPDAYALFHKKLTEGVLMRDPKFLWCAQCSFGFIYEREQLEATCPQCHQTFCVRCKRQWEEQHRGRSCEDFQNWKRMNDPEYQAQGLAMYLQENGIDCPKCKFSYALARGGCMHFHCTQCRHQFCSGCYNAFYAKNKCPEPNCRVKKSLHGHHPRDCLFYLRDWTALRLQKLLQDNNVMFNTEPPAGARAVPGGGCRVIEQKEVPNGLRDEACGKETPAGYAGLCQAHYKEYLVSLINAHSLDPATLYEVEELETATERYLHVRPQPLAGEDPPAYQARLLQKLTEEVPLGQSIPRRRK
Method in brief: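 Recombinant human HOIP fragment (E. coli) preincubated with compounds (100-0.005 μM, 1% DMSO) and E1 for 1 h at 25° C. E2 and substrates then added; reaction 2.5 h at 25° C. HTRF read-out, excitation 337 nm, emissions 665/620 nm.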

[2] = tested on: NF-κB signaling pathway; experiment: Cell-based dual luciferase NF-κB reporter assay (HEK293 cells, TNF stimulated); conditions: Homo sapiens, HEK293
Method in brief: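 HEK293 cells transfected with Firefly luciferase and NF-κB-response-element NanoLuc plasmids; compounds at 100–0.005 µM in 1% DMSO. Cells stimulated with 2.5 ng/mL TNF 30 min after compound addition. Firefly and NanoLuc activities read after 6 h by Nano-Glo dual-luciferase detection.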

[3] = tested on: bladder carcinoma RT4 cell line; experiment: TNF-α-induced cytotoxicity assay (CellTiter-Glo viability); type: cell-based; conditions: Homo sapiens, RT-4, 72 h
Method in brief: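 RT4 bladder carcinoma cells, 1000 per well, stimulated with 1.25 ng/mL TNFα together with compound for 72 h at 37° C., 5% CO2. Viability read by CellTiter-Glo luminescence, proportional to cellular ATP, as a measure of HOIP-dependent cytotoxicity.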

SMILES: O=C(NC/C=C/S(=O)(=O)c1ccccc1)c1cc2c([nH]c1=O)CCN(Cc1cccnn1)C2 [Example 123, N-[(2E)-3-(benzenesulfonyl)prop-2-en-1-yl]-2-oxo-6-[(pyridazin-3-yl)methyl]-1,2,5,6,7,8-hexahydro-1,6-naphthyridine-3-carboxamide]
- IC50 [1]: ≤ 1 µM
- IC50 [2]: ≤ 100 µM
- IC50 [3]: ≤ 100 µM

SMILES: CC(C)(C)OC(=O)N1CCc2[nH]c(=O)c(C(=O)NC/C=C/S(=O)(=O)c3ccc(Cl)cc3)cc2C1 [Example 27, tert-butyl 3-{[(2E)-3-(4-chlorobenzenesulfonyl)prop-2-en-1-yl]carbamoyl}-2-oxo-1,2,5,6,7,8-hexahydro-1,6-naphthyridine-6-carboxylate]
- IC50 [1]: ≤ 0.1 µM
- IC50 [2]: ≤ 1 µM
- IC50 [3]: ≤ 1 µM

SMILES: O=C(NC/C=C/S(=O)(=O)c1ccc(C2CC2)cc1)c1cc2c([nH]c1=O)CCCC2 [Example 55, N-[(2E)-3-(4-cyclopropylbenzenesulfonyl)prop-2-en-1-yl]-2-oxo-1,2,5,6,7,8-hexahydroquinoline-3-carboxamide]
- IC50 [1]: ≤ 0.1 µM
- IC50 [2]: ≤ 1 µM
- IC50 [3]: ≤ 1 µM

SMILES: O=C(NC/C=C/S(=O)(=O)c1ccccc1)c1cc2c([nH]c1=O)CCN(C(=O)c1nc(C3CC3)cs1)C2 [Example 116, N-[(2E)-3-(benzenesulfonyl)prop-2-en-1-yl]-6-(4-cyclopropyl-1,3-thiazole-2-carbonyl)-2-oxo-1,2,5,6,7,8-hexahydro-1,6-naphthyridine-3-carboxamide]
- IC50 [1]: ≤ 0.1 µM
- IC50 [2]: ≤ 10 µM
- IC50 [3]: ≤ 10 µM

SMILES: O=C(NC/C=C/S(=O)(=O)c1ccccc1)c1cc2c([nH]c1=O)CCN(C(=O)OCCc1ccco1)C2 [Example 89, 2-(furan-2-yl)ethyl 3-{[(2E)-3-(benzenesulfonyl)prop-2-en-1-yl]carbamoyl}-2-oxo-1,2,5,6,7,8-hexahydro-1,6-naphthyridine-6-carboxylate]
- IC50 [1]: ≤ 1 µM
- IC50 [2]: ≤ 10 µM
- IC50 [3]: ≤ 1 µM

SMILES: [2H]C([2H])(/C=C/S(=O)(=O)c1ccccc1)NC(=O)c1cc2c([nH]c1=O)CCCC2 [Example 53, N-[(2E)-3-(benzenesulfonyl)(1,1-^2H2)prop-2-en-1-yl]-2-oxo-1,2,5,6,7,8-hexahydroquinoline-3-carboxamide]
- IC50 [1]: ≤ 1 µM
- IC50 [2]: ≤ 1 µM
- IC50 [3]: ≤ 1 µM

SMILES: O=C(NC/C=C/S(=O)(=O)c1ccccc1)c1cc2c([nH]c1=O)CCN(C(=O)C1CCOC1)C2 (stereo not drawn) [Example 113, N-[(2E)-3-(benzenesulfonyl)prop-2-en-1-yl]-2-oxo-6-(oxolane-3-carbonyl)-1,2,5,6,7,8-hexahydro-1,6-naphthyridine-3-carboxamide]
- IC50 [1]: ≤ 1 µM
- IC50 [2]: ≤ 100 µM
- IC50 [3]: ≤ 100 µM

SMILES: CC(=O)N1CCC(OC(=O)N2CCc3[nH]c(=O)c(C(=O)NC/C=C/S(=O)(=O)c4ccc(Cl)cc4)cc3C2)CC1 [Example 92, 1-acetylpiperidin-4-vi 3-{[(2E)-3-(4-chlorobenzenesulfonyl)prop-2-en-1-yl]carbamoyl}-2-oxo-1,2,5,6,7,8-hexahydro-1,6-naphthyridine-6-carboxylate]
- IC50 [1]: ≤ 0.1 µM
- IC50 [2]: ≤ 10 µM
- IC50 [3]: ≤ 100 µM

SMILES: COc1ccc(S(=N)(=O)/C=C/CNC(=O)c2cc3c([nH]c2=O)CCCC3)cc1OC (stereo not drawn) [Example 52, N-[(2E)-3-[(3,4-dimethoxyphenyl)(imino)oxo-λ^6-sulfanyl]prop-2-en-1-yl]-2-oxo-1,2,5,6,7,8-hexahydroquinoline-3-carboxamide]
- IC50 [1]: ≤ 1 µM
- IC50 [2]: ≤ 10 µM
- IC50 [3]: ≤ 1 µM

SMILES: COCC(C)OC(=O)N1CCc2[nH]c(=O)c(C(=O)NC/C=C/S(=O)(=O)c3ccc(Cl)cc3)cc2C1 (stereo not drawn) [Example 94, 1-methoxypropan-2-yl 3-{[(2E)-3-(4-chlorobenzenesulfonyl)prop-2-en-1-yl]carbamoyl}-2-oxo-1,2,5,6,7,8-hexahydro-1,6-naphthyridine-6-carboxylate]
- IC50 [1]: ≤ 0.1 µM
- IC50 [2]: ≤ 1 µM
- IC50 [3]: ≤ 10 µM

SMILES: O=C(NC/C=C/S(=O)(=O)c1ccc(Cl)cc1)c1cc2c([nH]c1=O)CCN(C(=O)OCC1CC1)C2 [Example 88, cyclopropylmethyl 3-{[(2E)-3-(4-chlorobenzenesulfonyl)prop-2-en-1-yl]carbamoyl}-2-oxo-1,2,5,6,7,8-hexahydro-1,6-naphthyridine-6-carboxylate]
- IC50 [1]: ≤ 0.1 µM
- IC50 [2]: ≤ 1 µM
- IC50 [3]: ≤ 1 µM

SMILES: CC1(C(=O)N2CCc3[nH]c(=O)c(C(=O)NC/C=C/S(=O)(=O)c4ccccc4)cc3C2)CCC1 [Example 115, N-[(2E)-3-(benzenesulfonyl)prop-2-en-1-yl]-6-(1-methylcyclobutanecarbonyl)-2-oxo-1,2,5,6,7,8-hexahydro-1,6-naphthyridine-3-carboxamide]
- IC50 [1]: ≤ 1 µM
- IC50 [2]: ≤ 100 µM
- IC50 [3]: ≤ 100 µM

SMILES: O=C(NC/C=C/S(=O)(=O)c1ccccc1)c1cc(-c2ccccc2)c[nH]c1=O [Example 12, N-[(2E)-3-(benzenesulfonyl)prop-2-en-1-yl]-2-oxo-5-phenyl-1,2-dihydropyridine-3-carboxamide]
- IC50 [1]: ≤ 1 µM
- IC50 [2]: ≤ 10 µM
- IC50 [3]: ≤ 10 µM

SMILES: O=C(NC/C=C/S(=O)(=O)c1ccccc1)c1cc2c([nH]c1=O)CCN(C(=O)OC1CCC1)C2 [Example 70, cyclobutyl 3-{[(2E)-3-(benzenesulfonyl)prop-2-en-1-yl]carbamoyl}-2-oxo-1,2,5,6,7,8-hexahydro-1,6-naphthyridine-6-carboxylate]
- IC50 [1]: ≤ 0.1 µM
- IC50 [2]: ≤ 1 µM
- IC50 [3]: ≤ 1 µM
